Assay results: patent US10814010B2, “FOXC2 inhibitor and methods of use thereof” (The Board of Regents of The University of Texas System, priority 2018, dated 2020)

Assays:
Type in all cases: cell-based
[1] = system: MDA-MB-231 cells; experiment: Wound healing assay, MDA-MB-231; conditions: MDA-MB-231, 20 μM, 24 hours
Experimental: Reversal of EMT mediated by MC-1-F2 was anticipated to lead to the inhibition of metastatic capability of cancer cells. […] A wound healing assay was carried out to examine the migratory capabilities of cells in closing a “wound” or gap over a period of 24 hours. […] Inhibition of migratory capabilities of cells only measures one aspect of EMT progression. EMT is marked also by increased invasiveness of cancer cells. Therefore, the invasive property of MDA-MB-231 cells treated with MC-1-F2 was examined (FIGS. 6B&C).
3×10^5 cells of MDA-MB-231 in 70 μL of DMEM media were seeded on an ibidi μ-dish (Ibidi) and incubated for 24 hours. The insert was removed carefully with tweezers, to create the “wound” and the dish rinsed with DPBS. Followed by the addition of DMEM media with applicable drug. Images were taken at various time points and monitoring of the migration of cells into the “gap” was recorded at several time points.

[2] = system: PC3 cells; experiment: Western blot of EMT, CSC markers and AR in PC3; conditions: PC3, 20 μM, 48 hours
Description: (§1) Due to our interest in CRPC the cell lines DU145 and PC3 were chosen due to their chemoresistance to high concentrations of enzalutamide, androgen independence, and relatively high expression of FOXC2 (FIGS. 30A&B). First, the effect of MC-1-F2 on the inhibition of EMT markers was examined (FIGS. 26A-G). […] The variability in E-cadherin expression can be due to a different mode of action the ligand MC-1-F2 is having on prostate cancer cells, possibly a time dependent effect of the ligand.
(§2) After confirmation of the ligand's ability to block EMT, the ligand's ability to decrease cancer stem cell (CSC) characteristics was determined. CRPC is plagued by a higher ratio of CSC to normal prostate cells, leading to the acquired characteristics of higher proliferative and self-renewal capabilities (Yun et al., 2016). CSC markers, Nanog, C-myc and KLF4, were examined.
(§3) 50 μg of total protein per sample was incubated with 4× loading buffer at 100° C. for 5 min. Protein samples were then loaded into a polyacrylamide gel and subjected to SDS-PAGE. Resolved proteins were then transferred by a wet transfer method to a PVDF membrane at 100 V for 1 hour using a BioRad Mini Trans-Blot Electrophoresis Transfer Cell. Upon the completion of wet transfer, the membrane was then blocked with 5% (w/v) fat-free milk in 1× Tris-buffered saline/0.1% (v/v) Tween-20 (TBS-T) for at least 1 hour. Then incubated with the respective primary antibodies diluted in 5% BSA in 1×TBST at 4° C. overnight. The following day exposed to 1:1000 dilution of anti-mouse […] secondary antibodies in 5% (w/v) fat-free milk in 1×TBS-T for 1 hour at room temperature. The probed proteins were then detected for chemiluminescent signal using SuperSignal Chemiluminescent Substrate (PIERCE). Pierce antibodies: B-actin, and all other antibodies used are from cell signaling.

[3] = system: DU145 cells; experiment: Western blot of EMT, CSC markers and AR in DU145; conditions: DU145, 20 μM, 48 hours
Description: as §1, §2, §3

[4] = system: MCF-7 cells; experiment: MTT cell viability assay, MCF-7; conditions: MCF-7, MTT, very low FOXC2 expression
Experimental: It was hypothesized that the specific binding of MC-1-F2 can lead to its specific cellular activity against cancer cells with high FOXC2 expression. This hypothesis was tested by evaluating MC-1-F2's cellular activity on cell lines with different FOXC2 expression levels: MCF-7, BT549, and MDA-MB-231. […] However, further studies are still underway. The specificity in cellular activity of MC-1-F2 was further evaluated in the form of a soft-agar colony forming assay to determine if MC-1-F2 was able to inhibit in vitro tumorigenicity of cancer cells in a FOXC2 expression-dependent manner. […] Further testing is underway in various breast cancer cell lines with different FOXC2 expression levels.
Cell viability was assessed by MTT (3-(4,5-Dimethylthiazol-2-yl)-2,5-Diphenyltetrazolium Bromide) assay. 1×10^4 cells were seeded on 48-well cell culture plate, and were incubated for at least 24 hours prior to drug treatment. The MTT reagent (Fisher Scientific) was added to the culture medium 3 hours prior to the end of compound incubation. The reaction took place in the 37° C. incubator with 5% CO2 for 3 hours. Cell culture medium was then removed from the wells. Cells with the insoluble purple formazan were lysed with DMSO for 10 mins at room temperature, 0.5 ml per well. The solution was aliquot to 96-well plate for absorbance reading at 570 nm using a plate reader.

**Q.** With `N=C(N)NCCCCNc1nc(Nc2ccc(Oc3ccccc3)cc2)nc(N2CCN(c3nc(N)nc(Nc4ccc(N5CCOCC5)cc4)n3)CC2)n1` [MC-1-F2] as the molecule, how does the “migratory activity / wound closure” value [1] read?
**A.** The value was “inhibition of the migratory activity”.

**Q.** What about the AR expression [2] of the same molecule?
**A.** The AR expression was “no effect on AR expression”.

**Q.** What about the “CSC markers Nanog, C-myc and KLF4” value [2] of the same molecule?
**A.** The value was “significant decreases”.

**Q.** And the E-cadherin expression levels [2]?
**A.** The E-cadherin expression levels was “no recovery in the expression levels of E-cadherin”.

**Q.** And the “EMT markers ZEB1, Vimentin, N-cadherin and Slug” value [2]?
**A.** The value was “inhibit various EMT markers”.

**Q.** And the “epithelial marker ZO-1 expression” value [2]?
**A.** The value was “recovery of the epithelial marker ZO-1”.

**Q.** What about the AR expression [3] of the same molecule?
**A.** Its AR expression is “no effect on AR expression”.

**Q.** And the “CSC markers Nanog, C-myc and KLF4” value [3]?
**A.** Its value is “significant decreases”.

**Q.** And the E-cadherin expression levels [3]?
**A.** The E-cadherin expression levels was “recovery of E-cadherin”.

**Q.** And the “EMT markers ZEB1, Vimentin, N-cadherin and Slug” value [3]?
**A.** Its value is “inhibit various EMT markers”.

**Q.** What about the “epithelial marker ZO-1 expression” value [3] of the same molecule?
**A.** Its value is “recovery of the epithelial marker ZO-1”.

**Q.** What about the “inhibition of cell viability” value [4] of the same molecule?
**A.** Its value is “little inhibition of cell viability”.
